Columns and labels:
[1] = test system: A-549 human lung carcinoma cells; assay: Cytotoxicity, resazurin metabolism assay, A-549; format: cell-based; conditions: 48 h, mean ± SD
From the text: (§1) Human lung carcinoma (A-549), human colon adenocarcinoma (DLD-1), human normal fibroblasts (WS1), mice melanoma (B16-F1), Human glioma (U-251), Human hepatocellular carcinoma (HEP G2), Human prostate adenocarcinoma (PC-3), Human ovary teratocarcinoma metastatic (PA-1), Human breast adenocarcinona metastatic (MDA-MB-231), Human breast adenocarcinoma (MCF-7) and Human malignant melanoma (SK-MEL-2) cell lines were obtained from the American Type Culture Collection (ATCC). All cell lines were cultured in minimum essential medium containing Earle's salts and L-glutamine (Mediatech Cellgro, Va.), to which was added 10% fetal bovine serum (Hyclone), vitamins (1×), penicillin (100 I.U./mL) and streptomycin (100 μg/mL), essential amino acids (1×) and sodium pyruvate (1×) (Mediatech Cellgro, Va.). Cells were kept at 37° C. in a humidified environment containing 5% CO2.
(§2) Exponentially growing cells were plated in 96-well microplates (Costar, Corning Inc.) at a density of 5×10^3 cells per well in 100 μL of culture medium and were allowed to adhere for 16 hours before treatment. Increasing concentrations of each compound in DMSO (Sigma-Aldrich) were then added (100 μL per well) and the cells were incubated for 48 h. […] Cytotoxicity was assessed using resazurin (O'Brien, J. et al., Eur. J. Biochem. 2000, 267, 5421-5426) on an automated 96-well Fluoroskan Ascent F1™ plate reader (Labsystems) using excitation and emission wavelengths of 530 nm and 590 nm, respectively. Fluorescence was proportional to the cellular metabolic activity in each well. Survival percentage was defined as the fluorescence in experimental wells compared to that in control wells after subtraction of blank values. Each experiment was carried out three times in triplicata. IC50 results were expressed as mean±standard deviation.
(§3) The cytotoxicity of triterpenes (1-8) and corresponding glycosides (9-30) (Table 2 below) as well as of germanicane-type triterpenes and glycosides (31-44) (Table 3 below) was assessed towards human cancer (A-549, DLD-1), mouse melanoma (B16-F1) and human normal skin fibroblast (WS1) cell lines using the resazurin reduction test (RTT test) as previously described (O'Brien, J. et al., Eur. J. Biochem. 2000, 267, 5421-5426). Measurements of fluorescence were carried out after 48 continuous hours of contact between compounds and cells. Results presented in Tables 2 and 3 below express the concentration inhibiting 50% of the cell growth (IC50). Known for its activity against A-549, betulinic acid (3) was used as a positive control in this experimentation. […] The cytotoxic activity of some of these compounds was also assessed using the Hoechst DNA assay (Table 4 below).

[2] = test system: A-549 cells; assay: Cytotoxicity, Hoechst DNA assay, A-549; format: cell-based, human; conditions: ± SD
From the text: as §1, §3

[3] = test system: B16-F1 cells; assay: Cytotoxicity, Hoechst DNA assay, B16-F1; format: cell-based, mouse; conditions: ± SD
From the text: as §1, §3

[4] = test system: WS-1 cells; assay: Cytotoxicity, Hoechst DNA assay, WS-1; format: cell-based, human; conditions: ± SD
From the text: as §1, §3

[5] = test system: WS-1 human normal skin fibroblasts; assay: Cytotoxicity, resazurin metabolism assay, WS-1; format: cell-based; conditions: 48 h, mean ± SD
From the text: as §1, §2, §3

[6] = test system: B16-F1 mouse melanoma cells; assay: Cytotoxicity, resazurin metabolism assay, B16-F1; format: cell-based; conditions: 48 h, mean ± SD
From the text: as §1, §2, §3

[7] = test system: U-251 human glioma cells; assay: Cytotoxicity, resazurin metabolism assay, U-251; format: cell-based; conditions: mean ± SD
From the text: as §1, §2
(§4) Compounds presented in Table 5 below were also tested in the following tumour cell lines: U-251 (Human glioma), HEP G2 (Human hepatocellular carcinoma), PC-3 (Human prostate adenocarcinoma), PA-1 (Human ovary teratocarcinoma metastatic), MDA-MB-231 (Human breast adenocarcinona metastatic), MCF-7 (Human breast adenocarcinoma) and SK-MEL-2 (Human malignant melanoma).

[8] = test system: DLD-1 human colorectal adenocarcinoma cells; assay: Cytotoxicity, resazurin metabolism assay, DLD-1; format: cell-based; conditions: 48 h, mean ± SD
From the text: as §1, §2, §3

[9] = test system: SK-Mel-2 human melanoma cells; assay: Cytotoxicity, resazurin metabolism assay, SK-Mel-2; format: cell-based; conditions: mean ± SD
From the text: as §1, §2, §4

[10] = test system: MCF-7 human breast adenocarcinoma cells; assay: Cytotoxicity, resazurin metabolism assay, MCF-7; format: cell-based; conditions: mean ± SD
From the text: as §1, §2, §4

[11] = test system: MDA-MB-231 human breast adenocarcinoma cells; assay: Cytotoxicity, resazurin metabolism assay, MDA-MB-231; format: cell-based; conditions: mean ± SD
From the text: as §1, §2, §4

[12] = test system: Hep G2 human hepatocellular carcinoma cells; assay: Cytotoxicity, resazurin metabolism assay, Hep G2; format: cell-based; conditions: mean ± SD
From the text: as §1, §2, §4

[13] = test system: PA-1 human ovary teratocarcinoma cells; assay: Cytotoxicity, resazurin metabolism assay, PA-1; format: cell-based; conditions: mean ± SD
From the text: as §1, §2, §4

[14] = test system: PC-3 human prostate adenocarcinoma cells; assay: Cytotoxicity, resazurin metabolism assay, PC-3; format: cell-based; conditions: mean ± SD
From the text: as §1, §2, §4

[15] = test system: DLD-1 cells; assay: Cytotoxicity, Hoechst DNA assay, DLD-1; format: cell-based, human; conditions: ± SD
From the text: as §1, §3

| SMILES | IC50 [1] | IC50 [2] | IC50 [3] | IC50 [4] | IC50 [5] | IC50 [6] | IC50 [7] | IC50 [8] | IC50 [9] | IC50 [10] | IC50 [11] | IC50 [12] | IC50 [13] | IC50 [14] | IC50 [15] |
| --- | --- | --- | --- | --- | --- | --- | --- | --- | --- | --- | --- | --- | --- | --- | --- |
| C=C(C)[C@@H]1CC[C@]2(C)CC[C@]3(C)[C@H](CC[C@@H]4[C@@]5(C)CC[C@H](O[C@H]6OC[C@@H](O)[C@@H](O)[C@@H]6O)C(C)(C)[C@@H]5CC[C@]43C)[C@@H]12 [Compound 11, 3-O-α-D-Arabinopyranoside of Lupeol] | 28 ± 2 µM | 34 ± 2 µM | 28 ± 1 µM | 24 ± 1 µM | 15.8 ± 0.8 µM | 27 ± 2 µM | 10.1 ± 0.2 µM | 50 ± 6 µM | 10 ± 0.8 µM | 23 ± 2 µM | 11 ± 1 µM | 10 ± 0.9 µM | 9.8 ± 0.6 µM | 26 ± 3 µM | 69 ± 7 µM |
| C=C(C)[C@@H]1CC[C@]2(C(=O)O)CC[C@]3(C)[C@H](CC[C@@H]4[C@@]5(C)CC[C@H](O[C@@H]6OC[C@@H](O)[C@H](O)[C@H]6O)C(C)(C)[C@@H]5CC[C@]43C)[C@@H]12 [Compound 30, 3-O-β-D-Xylopyranoside of betulinic acid] | 14 ± 2 µM | – | – | – | 21 ± 1 µM | – | 26 ± 6 µM | 19.2 ± 0.8 µM | 36 ± 4 µM | 23 ± 4 µM | 40 ± 4 µM | 43 ± 3 µM | 7.9 ± 0.9 µM | 46 ± 8 µM | – |
| C=C(C)C1CCC2(C(=O)O)CCC3(C)C(CCC4C5(C)CCC(OC6OC(CO)C(O)C(O)C6O)C(C)(C)C5CCC43C)C12 [Compound 29, 3-O-β-D-Mannopyranoside of Betulinic Acid] | 41 ± 4 µM | – | – | – | 16 ± 3 µM | – | 6 ± 2 µM | 14.9 ± 0.5 µM | 4.7 ± 0.6 µM | 20 ± 2 µM | 21 ± 2 µM | 26 ± 2 µM | 2.2 ± 0.2 µM | 27 ± 3 µM | – |
| C=C(C)[C@@H]1CC[C@]2(CO[C@@H]3O[C@H](CO)[C@@H](O)[C@H](O)[C@H]3O)CC[C@]3(C)[C@H](CC[C@@H]4[C@@]5(C)CC[C@H](O)C(C)(C)[C@@H]5CC[C@]43C)[C@@H]12 [Compound 15, 28-O-β-D-Glucopyranoside of Betulin] | > 248 µM | > 194 µM | > 194 µM | > 194 µM | > 248 µM | > 248 µM | – | > 248 µM | – | – | – | – | – | – | > 194 µM |
| C=C(C)[C@@H]1CC[C@]2(C(=O)OC)CC[C@]3(C)[C@H](CC[C@@H]4[C@@]5(C)CC[C@H](O[C@@H]6O[C@@H](C)[C@H](O)[C@@H](O)[C@H]6O)C(C)(C)[C@@H]5CC[C@]43C)[C@@H]12 [Compound 19, 3-O-α-L-Rhamnopyranoside of Methyl Betulinate] | 59 ± 3 µM | 58 ± 2 µM | 46 ± 1 µM | 65 ± 5 µM | 53 ± 2 µM | 55 ± 2 µM | – | > 183 µM | – | – | – | – | – | – | > 150 µM |
| C=C(C)[C@@H]1CC[C@]2(CO)CC[C@]3(C)[C@H](CC[C@@H]4[C@@]5(C)CC[C@H](OC(C)=O)C(C)(C)[C@@H]5CC[C@]43C)[C@@H]12 [Compound 6, 3-Acetoxybetulin] | > 253 µM | 90 ± 10 µM | 42 ± 6 µM | > 180 µM | > 253 µM | > 253 µM | – | > 253 µM | – | – | – | – | – | – | > 253 µM |
| C=C(C)C1CCC2(CO)CCC3(C)C(CCC4C5(C)CCC(OC6OC(CO)C(O)C(O)C6O)C(C)(C)C5CCC43C)C12 [Compound 26, 3-O-β-D-Mannopyranoside of Betulin] | 7.5 ± 0.1 µM | – | – | – | 5.3 ± 0.5 µM | – | 8.3 ± 0.4 µM | 11 ± 0.5 µM | 8.8 ± 0.4 µM | 9.2 ± 0.4 µM | 9.1 ± 0.2 µM | 8.3 ± 0.4 µM | 7.6 ± 0.4 µM | 8.6 ± 0.4 µM | – |
| C=C(C)[C@@H]1CC[C@]2(C(=O)OC)CC[C@]3(C)[C@H](CC[C@@H]4[C@@]5(C)CC[C@H](O)C(C)(C)[C@@H]5CC[C@]43C)[C@@H]12 [Compound 7, Methyl Betulinate] | 19 ± 3 µM | 19 ± 2 µM | 15.7 ± 0.9 µM | 19 ± 4 µM | 19 ± 2 µM | 26 ± 1 µM | – | 25 ± 4 µM | – | – | – | – | – | – | 21 ± 1 µM |
| C=C(C)[C@@H]1CC[C@]2(COC(C)=O)CC[C@]3(C)[C@H](CC[C@@H]4[C@@]5(C)CC[C@H](O)C(C)(C)[C@@H]5CC[C@]43C)[C@@H]12 [Compound 5, 28-Acetoxybetulin] | 75 ± 7 µM | 49 ± 7 µM | 35 ± 1 µM | 47 ± 2 µM | 44 ± 2 µM | 43 ± 2 µM | – | 56 ± 4 µM | – | – | – | – | – | – | 46 ± 5 µM |
| C=C(C)[C@@H]1CC[C@]2(CO)CC[C@]3(C)[C@H](CC[C@@H]4[C@@]5(C)CC[C@H](O[C@@H]6O[C@H](CO)[C@@H](O)[C@H](O)[C@H]6O)C(C)(C)[C@@H]5CC[C@]43C)[C@@H]12 [Compound 12, 3-O-β-D-Glucopyranoside of Betulin] | > 200 µM | > 200 µM | > 200 µM | > 200 µM | > 200 µM | > 200 µM | – | > 200 µM | – | – | – | – | – | – | > 200 µM |
| C=C(C)C1CCC2(COC3OC(C)C(O)C(O)C3O)CCC3(C)C(CCC4C5(C)CCC(O)C(C)(C)C5CCC43C)C12 [Compound 16, 28-O-α-L-Rhamnopyranoside of Betulin] | > 228 µM | > 194 µM | > 194 µM | > 194 µM | > 228 µM | > 228 µM | – | > 228 µM | – | – | – | – | – | – | > 194 µM |
| C=C(C)C1CCC2(CO)CCC3(C)C(CCC4C5(C)CCC(OC6OCC(O)C(O)C6O)C(C)(C)C5CCC43C)C12 [Compound 14, 3-O-α-D-Arabinopyranoside of Betulin] | 41 ± 3 µM | – | – | – | 59 ± 5 µM | 38 ± 3 µM | 40 ± 7 µM | 63 ± 8 µM | 54 ± 3 µM | 61 ± 7 µM | 49.2 ± 0.9 µM | 38 ± 2 µM | 41 ± 5 µM | 65 ± 6 µM | – |
| CC1(C)CC[C@]23CC[C@]4(C)[C@H](CC[C@@H]5[C@@]6(C)CC[C@H](O[C@@H]7O[C@H](CO)[C@H](O)[C@H](O)[C@H]7O)C(C)(C)[C@@H]6CC[C@]54C)[C@H]2[C@H]1OC3 [Compound 36, 3-O-β-D-Galactopyranoside of Allobetulin] | 30 ± 10 µM | – | – | – | 30 ± 9 µM | – | 53 ± 4 µM | 42 ± 9 µM | 40 ± 3 µM | 60 ± 20 µM | 44 ± 4 µM | 41 ± 10 µM | 45 ± 4 µM | 45 ± 6 µM | – |
| C=C(C)C1CCC2(CO)CCC3(C)C(CCC4C5(C)CCC(OC6OC(C)C(O)C(O)C6O)C(C)(C)C5CCC43C)C12 [Compound 13, 3-O-α-L-Rhamnopyranoside of Betulin] | 22 ± 3 µM | – | – | – | 33 ± 5 µM | 18 ± 1 µM | 170 ± 40 µM | 50 ± 10 µM | 110 ± 20 µM | 19 ± 4 µM | 33 ± 2 µM | 11 ± 0.9 µM | 180 ± 30 µM | 61 ± 6 µM | – |
| CC1(C)CCC23CCC4(C)C(CCC5C6(C)CCC(OC7OC(CO)C(O)C(O)C7O)C(C)(C)C6CCC54C)C2C1OC3 [Compound 33, 3-O-β-D-Glucopyranoside of Allobetulin] | 31 ± 2 µM | – | – | – | 45 ± 3 µM | – | 46 ± 1 µM | 41.6 ± 0.9 µM | 37 ± 2 µM | 51 ± 2 µM | 41.2 ± 0.7 µM | 44 ± 5 µM | 39 ± 2 µM | 42 ± 8 µM | – |

Reference: patent US20100331269A1, “TRITERPENES DERIVATIVES AND USES THEREOF AS ANTITUMOR AGENTS OR ANTI-INFLAMMATORY AGENTS” (priority 2006, published 2010)
